Results on 1 molecule are retold here after patent US20040191172A1, “Preventive or therapeutic agents for dermatitis or alopecia, evaluation method of the agents, and transgenic mouse” (priority 2003, published 2004).

This series has as its system K5/IL-18 Tg (+) mice. As to the kind of experiment: Suppression of spontaneous dermatitis in K5/IL-18 transgenic (Tg (+)) mice, appearance and HE histopathology of back skin. The series is classed as in vivo. Conditions: 1% (10 mg/mL) applied to back skin for consecutive seven days. An excerpt:
The spontaneous dermatitis (A) refers to an inflammation that reaches its peak approximately on the 8th to 12th day after birth of an IL-18-introduced mouse and disappears after about four weeks and that has been identified by the inventors of the present invention for the first time. Pathologically speaking, in this inflammation, acanthosis (epidermal thickening) , hyperkeratosis, and inflammatory cell infiltrations that neutrophilic leukocytes are contained in dermis can be observed in dermal tissue, a slight sponge state is present in the epidermal base, and abscess formation in the cuticle due to epidermal neutrophilic infiltrations is observed (FIG. 3).
The evaluation method of the present invention can be performed as a method for screening agents for preventing/treating autoimmune dermatitis. The screening can be performed, for example, by the procedures of administrating an agent to be tested in either stage, before or after the occurrence of the peak of spontaneous dermatitis, and comparing mice without administration (control) in terms of the presence or the absence of peak occurrence, the size of the peak, the speed of peak disappearance or the like.
Next, the agent of preventing/treating dermatitis of the present invention will be described more specifically by way of examples. […]

`C[C@@H]1C[C@H]2[C@@H]3CCC4=CC(=O)C=C[C@]4(C)[C@@]3(F)[C@@H](O)C[C@]2(C)[C@@]1(O)C(=O)CO` [dexamethasone]: the “death from side effects (share of treated group)” value is on record as “about a half”.
